# Reference: patent publication US8124793B2, “Derivatives of ethylene methanedisulfonate as cancer chemotherapeutic agents” (priority 2007, dated 2012)
# Key:
# Assay type in all cases: cell-based
# SR = test: NCI screen, growth of human tumor cells: Leukemia SR; settings: SR
# Method in brief: (§1)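 Growth of human tumor cells, expressed as percent, was determined in the NCI screen. Test data list the cancer type and the molar concentration applied.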
# AS49/ATCC = test: NCI screen, growth of human tumor cells: Non-Small Cell Lung AS49/ATCC; settings: A549/ATCC, 10^−4 molar
# Method in brief: as §1
# EKVX = test: NCI screen, growth of human tumor cells: Non-Small Cell Lung EKVX; settings: EKVX, 10^−4 molar
# Method in brief: as §1
# HOP-62 = test: NCI screen, growth of human tumor cells: Non-Small Cell Lung HOP-62
# Method in brief: as §1
# NCI-H522 = test: NCI screen, growth of human tumor cells: Non-Small Cell Lung NCI-H522
# Method in brief: as §1
# NCI-H322M = test: NCI screen, growth of human tumor cells: Non-Small Cell Lung NCI-H322M; settings: NCI-H322M, 10^−4 molar
# Method in brief: as §1
# HCC-2998 = test: NCI screen, growth of human tumor cells: HCC-2998 (listed under Non-Small Cell Lung)
# Method in brief: as §1
# COLO205 = test: NCI screen, growth of human tumor cells: Colon Cancer COLO205
# Method in brief: as §1
# HCT-15 = test: NCI screen, growth of human tumor cells: Colon Cancer HCT-15
# Method in brief: as §1
# KM12 = test: NCI screen, growth of human tumor cells: Colon Cancer KM12; settings: KM12, 10^−4 molar
# Method in brief: as §1
# SF-268 = test: NCI screen, growth of human tumor cells: CNS Cancer SF-268
# Method in brief: as §1
# SF-295 = test: NCI screen, growth of human tumor cells: CNS Cancer SF-295; settings: SF-295, 10^−4 molar
# Method in brief: as §1
# SNB-19 = test: NCI screen, growth of human tumor cells: CNS Cancer SNB-19
# Method in brief: as §1
# SF-539 = test: NCI screen, growth of human tumor cells: CNS Cancer SF-539
# Method in brief: as §1
# SNB-75 = test: NCI screen, growth of human tumor cells: CNS Cancer SNB-75
# Method in brief: as §1
# U-251 = test: NCI screen, growth of human tumor cells: CNS Cancer U-251
# Method in brief: as §1
# LOXIMVI = test: NCI screen, growth of human tumor cells: Melanoma LOXIMVI; settings: LOXIMVI
# Method in brief: as §1
# SK-MEL-2 = test: NCI screen, growth of human tumor cells: Melanoma SK-MEL-2
# Method in brief: as §1
# SK-MEL-5 = test: NCI screen, growth of human tumor cells: Melanoma SK-MEL-5
# Method in brief: as §1
# UACC-257 = test: NCI screen, growth of human tumor cells: Melanoma UACC-257; settings: UACC-257, 10^−4 molar
# Method in brief: as §1
# UACC-62 = test: NCI screen, growth of human tumor cells: Melanoma UACC-62; settings: UACC-62 (Melanoma), 10^−4 molar
# Method in brief: as §1
# IGROVI = test: NCI screen, growth of human tumor cells: Ovarian Cancer IGROVI; settings: IGROVI
# Method in brief: as §1
# OVCAR-3 = test: NCI screen, growth of human tumor cells: Ovarian Cancer OVCAR-3; settings: OVCAR-3, 10^−4 molar
# Method in brief: as §1
# OVCAR-4 = test: NCI screen, growth of human tumor cells: Ovarian Cancer OVCAR-4; settings: OVCAR-4, 10^−4 molar
# Method in brief: as §1
# OVCAR-5 = test: NCI screen, growth of human tumor cells: Ovarian Cancer OVCAR-5
# Method in brief: as §1
# OVCAR-8 = test: NCI screen, growth of human tumor cells: Ovarian Cancer OVCAR-8
# Method in brief: as §1
# ACHN = test: NCI screen, growth of human tumor cells: Renal Cancer ACHN; settings: ACHN, 10^−4 molar
# Method in brief: as §1
# SN12C = test: NCI screen, growth of human tumor cells: Renal Cancer SN12C; settings: SN12C, 10^−4 molar
# Method in brief: as §1
# CAKI-1 = test: NCI screen, growth of human tumor cells: Renal Cancer CAKI-1
# Method in brief: as §1
# UO-31 = test: NCI screen, growth of human tumor cells: Renal Cancer UO-31; settings: UO-31, 10^−4 molar
# Method in brief: as §1
# MCF 7 = test: NCI screen, growth of human tumor cells: Breast Cancer MCF 7
# Method in brief: as §1
# MDA-MB-231/ATCC = test: NCI screen, growth of human tumor cells: Breast Cancer MDA-MB-231/ATCC; settings: for % Growth: MDA-MB-231 (ATCC)
# Method in brief: as §1
# MDA-MB-435 = test: NCI screen, growth of human tumor cells: Breast Cancer MDA-MB-435
# Method in brief: as §1
# human cancer cells = test: NCI screen summary over the cancers tested (negative growth of human cancer cells); settings: for Percentage of cancers showing negative growth cancers tested: cancers with negative growth / cancers tested
# Protocol: In the NCI screening process, each compound was tested and described by a minimum of 60 data points. The test data include, but are not limited to the type of cancer, the molar concentration used in the screen, and the percent growth of the cancer. In some cases, NMR and elemental analysis were used for structural assignment.
# The derivatives in the tables are grouped using the same category as in the tables 1-6.
# MOLT-4 = test: NCI screen, growth of human tumor cells: Leukemia MOLT-4
# Method in brief: as §1
# NCI-H226 = test: NCI screen, growth of human tumor cells: Non-Small Cell Lung NCI-H226
# Method in brief: as §1
# DU-145 = test: NCI screen, growth of human tumor cells: Prostate Cancer DU-145; settings: DV-145, 10^−4 molar
# Method in brief: as §1
compound,measurement,setting,value
CC(=O)C1(CC2=C(C)C(=O)c3ccccc3C2=O)S(=O)(=O)OCCOS1(=O)=O [NSC 701690],% Growth,SR; 10^−4 molar,−100%
same,% Growth,SR; 10^−5 molar,−8%
same,% Growth,SR; 10^−6 molar,19%
same,% Growth,AS49/ATCC,−97%
same,% Growth,EKVX,−91%
same,% Growth,"HOP-62; HOP-62, 10^−4 molar",−92%
same,% Growth,"HOP-62; HOP-62, 10^−5 molar",52%
same,% Growth,"NCI-H522; NCI-H522, 10^−4 molar",−100%
same,% Growth,"NCI-H522; NCI-H522, 10^−5 molar",35%
same,% Growth,"NCI-H522; NCI-H522, 10^−6 molar",57%
same,% Growth,"NCI-H522; NCI-H522, 10^−7 molar",77%
same,% Growth,"NCI-H522; NCI-H522, 10^−8 molar",67%
same,% Growth,NCI-H322M,−100%
same,% Growth,"HCC-2998; HCC-2998, 10^−4 molar",−100%
same,% Growth,"COLO205; COLO205, 10^−4 molar",−100%
same,% Growth,"COLO205; COLO205, 10^−5 molar",60%
same,% Growth,"COLO205; COLO205, 10^−6 molar",58%
same,% Growth,"HCT-15; HCT-15, 10^−4 molar",−100%
same,% Growth,KM12,−71%
same,% Growth,"SF-268; SF-268, 10^−4 molar",−100%
same,% Growth,"SF-268; SF-268, 10^−5 molar",40%
same,% Growth,"SF-268; SF-268, 10^−6 molar",65%
same,% Growth,SF-295,−100%
same,% Growth,"SNB-19; SNB-19, 10^−4 molar",−47%
same,% Growth,"SNB-19; SNB-19, 10^−5 molar",53%
same,% Growth,"SF-539; SF-539, 10^−4 molar",−100%
same,% Growth,"SF-539; SF-539, 10^−5 molar",44%
same,% Growth,"SNB-75; SNB-75, 10^−4 molar",−100%
same,% Growth,"SNB-75; SNB-75, 10^−5 molar",45%
same,% Growth,"U-251; U251, 10^−4 molar",−100%
same,% Growth,"U-251; U251, 10^−5 molar",42%
same,% Growth,"U-251; U251, 10^−6 molar",53%
same,% Growth,"U-251; U251, 10^−7 molar",46%
same,% Growth,"U-251; U251, 10^−8 molar",62%
same,% Growth,LOXIMVI; 10^−4 molar,−100%
same,% Growth,LOXIMVI; 10^−5 molar,36%
same,% Growth,"SK-MEL-2; SK-MEL-2, 10^−4 molar",−73%
same,% Growth,"SK-MEL-2; SK-MEL-2, 10^−5 molar",7%
same,% Growth,"SK-MEL-2; SK-MEL-2, 10^−6 molar",−2%
same,% Growth,"SK-MEL-2; SK-MEL-2, 10^−7 molar",−8%
same,% Growth,"SK-MEL-2; SK-MEL-2, 10^−8 molar",−3%
same,% Growth,"SK-MEL-5; SK-MEL-5, 10^−4 molar",−100%
same,% Growth,"SK-MEL-5; SK-MEL-5, 10^−5 molar",58%
same,% Growth,UACC-257,−83%
same,percent of growth of human tumor cells,UACC-62,−57%
same,% Growth,IGROVI; 10^−4 molar,−100%
same,% Growth,IGROVI; 10^−5 molar,40%
same,% Growth,IGROVI; 10^−6 molar,60%
same,% Growth,OVCAR-3,−73%
same,% Growth,OVCAR-4,−100%
same,percent of growth of human tumor cells,"OVCAR-5; OVCAR-5 (Ovarian Cancer), 10^−4 molar",−53%
same,% Growth,"OVCAR-8; OVCAR-8, 10^−4 molar",−100%
same,% Growth,ACHN,−77%
same,% Growth,SN12C,−100%
same,percent of growth of human tumor cells,"CAKI-1; CAKI-1 (Renal Cancer), 10^−4 molar",−53%
same,% Growth,UO-31,−92%
same,% Growth,"MCF 7; MCF7, 10^−4 molar",−100%
same,% Growth,MDA-MB-231/ATCC; 10^−4 molar,−41%
same,% Growth,MDA-MB-231/ATCC; 10^−5 molar,39%
same,% Growth,MDA-MB-231/ATCC; 10^−6 molar,56%
same,% Growth,MDA-MB-231/ATCC; 10^−7 molar,58%
same,% Growth,MDA-MB-231/ATCC; 10^−8 molar,45%
same,% Growth,"MDA-MB-435; MDA-MB-435, 10^−4 molar",−95%
same,Percentage of cancers showing negative growth cancers tested,human cancer cells; 10^−4 M conc.,100%
same,Percentage of cancers showing negative growth cancers tested,human cancer cells; 10^−5 M conc.,5%
same,Percentage of cancers showing negative growth cancers tested,human cancer cells; 10^−6 M conc.,14%
"Cc1ccc2ccccc2c1CC1S(=O)(=O)OCCOS1(=O)=O [NSC 679043, ethylene 2-methyl-1-naphyl-1,1-ethanedisulfonate]",% Growth,"MOLT-4; MOLT-4, 10^−4 molar",−46%
same,% Growth,"MOLT-4; MOLT-4, 10^−5 molar",36%
same,% Growth,SR; 10^−4 molar,−63%
same,% Growth,SR; 10^−5 molar,42%
same,% Growth,AS49/ATCC,−77%
same,% Growth,EKVX,−98%
same,% Growth,"HOP-62; HOP-62, 10^−4 molar",−77%
same,% Growth,"NCI-H226; NCI-H226, 10^−4 molar",−63%
same,% Growth,"NCI-H226; NCI-H226, 10^−5 molar",49%
same,% Growth,"HCC-2998; HCC-2998, 10^−4 molar",−88%
same,% Growth,"HCC-2998; HCC-2998, 10^−5 molar",22%
same,% Growth,"COLO205; COLO205, 10^−4 molar",−98%
same,% Growth,"COLO205; COLO205, 10^−5 molar",−27%
same,percent of growth of human tumor cells,"HCT-15; HCT-15 (Colon Cancer), 10^−4 molar",−49%
same,% Growth,KM12,−69%
same,% Growth,SF-295,−88%
same,% Growth,"SNB-19; SNB-19, 10^−4 molar",−95%
same,% Growth,"U-251; U251, 10^−4 molar",−96%
same,% Growth,LOXIMVI; 10^−4 molar,−84%
same,% Growth,LOXIMVI; 10^−5 molar,45%
same,percent of growth of human tumor cells,"SK-MEL-2; SK-MEL-2 (Melanoma), 10^−4 molar",−59%
same,% Growth,"SK-MEL-5; SK-MEL-5, 10^−4 molar",−91%
same,% Growth,OVCAR-3,−100%
same,% Growth,OVCAR-4,−97%
same,% Growth,"OVCAR-5; OVCAR-5, 10^−4 molar",−98%
same,percent of growth of human tumor cells,"OVCAR-8; OVCAR-8 (Ovarian Cancer), 10^−4 molar",−53%
same,% Growth,ACHN,−90%
same,% Growth,SN12C,−85%
same,% Growth,"CAKI-1; CAKI-1, 10^−4 molar",−100%
same,% Growth,UO-31,−100%
same,% Growth,DU-145,−100%
same,% Growth,"MCF 7; MCF7, 10^−4 molar",−78%
same,% Growth,"MCF 7; MCF7, 10^−5 molar",45%
same,percent of growth of human tumor cells,"MDA-MB-231/ATCC; MDA-MB-231/ATCC (Breast Cancer), 10^−4 molar",−12%
same,% Growth,"MDA-MB-435; MDA-MB-435, 10^−4 molar",−90%
same,% Growth,"MDA-MB-435; MDA-MB-435, 10^−5 molar",47%
same,percentage of cancers that had −100% growth,human cancer cells; 10^−4 M conc.,8%
same,Percentage of cancers showing negative growth cancers tested,human cancer cells; 10^−4 M conc.,100%
same,Percentage of cancers showing negative growth cancers tested,human cancer cells; 10^−5 M conc.,9%
